Experimental data: DBAASP
Converted amounts (≈) assume the structure as drawn. “And” between values parts separate entries of the source, which are not always exact repeats. Identical values can stand only once.

Legend:
Test in all cases: ≥ marks a high value that may be exact or a test limit, other limits are often not marked, values filed in µg/mL are converted to µM
[1] = tested on: Enterococcus faecalis
[2] = tested on: Escherichia coli 1106
[3] = tested on: Pseudoalteromonas carrageenovora ATCC 43555
[4] = tested on: Escherichia coli D22
[5] = tested on: Salmonella typhimurium
[6] = tested on: Escherichia coli D31
[7] = tested on: Micrococcus luteus
[8] = tested on: Pseudomonas alginovora
[9] = tested on: Bacillus megaterium
[10] = tested on: Aerococcus viridans
[11] = tested on: Staphylococcus aureus
[12] = tested on: Staphylococcus aureus PCM 1944
[13] = tested on: Escherichia coli PCM 2057
[14] = tested on: Enterococcus faecalis ATCC 29212
[15] = tested on: Proteus vulgaris
[16] = tested on: Pseudomonas aeruginosa ATCC 27853
[17] = tested on: Klebsiella oxytoca
[18] = tested on: Streptococcus agalactiae ATCC 27956
[19] = tested on: Klebsiella pneumoniae ATCC 700603
[20] = tested on: Staphylococcus haemolyticus
[21] = tested on: Acinetobacter calcoaceticus
[22] = tested on: Pseudomonas aeruginosa
[23] = tested on: Klebsiella aerogenes
[24] = tested on: Streptococcus pneumoniae ATCC 49619
[25] = tested on: Streptococcus pneumoniae
[26] = tested on: Enterococcus faecium
[27] = tested on: Proteus mirabilis
[28] = tested on: Staphylococcus epidermidis
[29] = tested on: Escherichia coli
[30] = tested on: Citrobacter freundii
[31] = tested on: Serratia marcescens
[32] = tested on: Staphylococcus epidermidis ATCC 14990
[33] = tested on: Streptococcus oralis ATCC 35037
[34] = tested on: Enterobacter cloacae
[35] = tested on: Salmonella enterica serovar Typhimurium
[36] = tested on: Theileria equi
[37] = tested on: Escherichia coli O157:H7 ATCC 35150
[38] = tested on: Streptococcus gordonii DL1
[39] = tested on: Streptococcus sanguinis NY101
[40] = tested on: Streptococcus mutans comD
[41] = tested on: Streptococcus mutans UA159
[42] = tested on: Escherichia coli KCCM 11569
[43] = tested on: Bacillus subtilis KCCM 11495

C[C@@H]1NC(=O)[C@H](Cc2c[nH]c3ccccc23)NC(=O)CNC(=O)[C@H](CCCCN)NC(=O)[C@@H]2CSSC[C@@H](C(=O)O)NC(=O)[C@H](CCCN=C(N)N)NC(=O)[C@H](Cc3ccccc3)NC(=O)[C@@H]3CSSC[C@H](NC(=O)[C@H](CCCCN)NC(=O)[C@H](C)NC(=O)[C@H](CCCCN)NC(=O)[C@@H]4CSSC[C@H](NC(=O)[C@H](Cc5ccc(O)cc5)NC(=O)[C@H](CSSC[C@H](NC(=O)CN)C(=O)N[C@@H](C)C(=O)N[C@@H](CO)C(=O)N[C@@H](CCCN=C(N)N)C(=O)N4)NC(=O)[C@H](CCCN=C(N)N)NC(=O)CNC(=O)[C@H](CCCN=C(N)N)NC(=O)[C@H](Cc4ccccc4)NC(=O)[C@H](CO)NC(=O)[C@H](C)NC(=O)[C@H](CO)NC1=O)C(=O)N[C@@H](CCCCN)C(=O)N3)C(=O)N[C@@H](C)C(=O)NCC(=O)N[C@@H](CCCN=C(N)N)C(=O)N[C@@H](CCCN=C(N)N)C(=O)N2 [GCASRCKAKCAGRRCKGWASASFRGRCYCKCFRC]
MIC [1]: 3.54 µM (≈ 13.3 µg/mL) | MIC [2]: 10 µM (≈ 37.7 µg/mL) | MIC [3]: 3.54 µM (≈ 13.3 µg/mL) | MIC [4]: 7.07 µM (≈ 26.7 µg/mL) | MIC [5]: 10 µM (≈ 37.7 µg/mL) | MIC [6]: 3.54 µM (≈ 13.3 µg/mL) | MIC [7]: 0.849 µM (≈ 3.2 µg/mL) | MIC [8]: 3.54 µM (≈ 13.3 µg/mL) | MIC [9]: 0.849 µM (≈ 3.2 µg/mL) | MIC [10]: 0.849 µM (≈ 3.2 µg/mL) | MIC [11]: 7.07 µM (≈ 26.7 µg/mL)

CC[C@H](C)[C@H](N)C(=O)NCC(=O)N[C@H]1CSSC[C@@H](C(=O)N[C@@H](Cc2ccccc2)C(=O)N[C@H](C(=O)N[C@@H](CCCCN)C(N)=O)C(C)C)NC(=O)[C@@H]2CCCN2C(=O)[C@H](CCCN=C(N)N)NC(=O)[C@@H]2CCCN2C(=O)[C@@H]2CCCN2C(=O)[C@H]([C@@H](C)CC)NC(=O)[C@H](CO)NC(=O)[C@H](CCCCN)NC(=O)[C@H]([C@@H](C)O)NC(=O)[C@H](Cc2c[nH]c3ccccc23)NC1=O [IGCWTKSIPPRPCFVK]
MIC [12]: ≥ 546 µM | MIC [13]: ≥ 546 µM

NC(=O)CC[C@H](N)C(=O)N[C@@H](Cc1c[nH]c2ccccc12)C(=O)NCC(=O)N[C@@H](CCCN=C(N)N)C(=O)N[C@@H](CCCN=C(N)N)C(=O)N[C@H]1CSSC[C@@H]2NC(=O)[C@H](Cc3ccc(O)cc3)NC(=O)[C@H](CCCN=C(N)N)NC(=O)[C@H](CCCN=C(N)N)NC(=O)CNC(=O)[C@@H]3CCCN3C(=O)CNC(=O)[C@H](Cc3c[nH]c4ccccc34)NC(=O)CNC(=O)[C@H](CSSC[C@@H](C(=O)O)NC(=O)[C@H](Cc3c[nH]c4ccccc34)NC(=O)[C@H](CCCN=C(N)N)NC(=O)[C@H](CCCN=C(N)N)NC2=O)NC1=O [QWGRRCCGWGPGRRYCRRWC]
MIC [14]: 15.7 µM and 31.5 µM | MIC [15]: 17.8 µM (≈ 45.2 µg/mL) | MIC [16]: 62.9 µM (≈ 160 µg/mL) | MIC [17]: 17.8 µM (≈ 45.2 µg/mL) | MIC [18]: ≥ 62.9 µM | MIC [19]: 47.2 µM and 62.9 µM | MIC [20]: 4.45 µM (≈ 11.3 µg/mL) | MIC [21]: ≥ 50.3 µM | MIC [22]: > 50.3 µM | MIC [23]: 8.9 µM (≈ 22.6 µg/mL) | MIC [24]: 7.86 µM and 15.7 µM | MIC [25]: 8.9 µM (≈ 22.6 µg/mL) | MIC [26]: 1.57 µM (≈ 3.99 µg/mL) | MIC [27]: 25.2 µM (≈ 63.9 µg/mL) | MIC [28]: 8.9 µM (≈ 22.6 µg/mL) | MIC [29]: 2.22 µM (≈ 5.65 µg/mL) | MIC [30]: ≥ 50.3 µM | MIC [31]: 4.45 µM (≈ 11.3 µg/mL) | MIC [32]: 31.5 µM and ≥ 62.9 µM | MIC [33]: 31.5 µM and ≥ 78.6 µM | MIC [34]: 2.22 µM (≈ 5.65 µg/mL) | MIC [11]: 3.15 µM (≈ 7.99 µg/mL)

CC[C@H](C)[C@H](NC(=O)CNC(=O)[C@H](C)NC(=O)[C@H](CS)NC(=O)[C@H](Cc1ccc(O)cc1)NC(=O)CNC(=O)CNC(=O)[C@H](CCCN=C(N)N)NC(=O)[C@H](CCCN=C(N)N)NC(=O)CNC(=O)[C@@H](NC(=O)[C@@H](N)CO)[C@@H](C)CC)C(=O)N[C@H](C(=O)N[C@@H](CCCCN)C(=O)N[C@@H](CCC(N)=O)C(=O)N[C@H](C(=O)N[C@@H](CS)C(=O)N[C@H](C(=O)N[C@@H](CS)C(=O)N[C@@H](Cc1ccc(O)cc1)C(=O)N[C@@H](CCCN=C(N)N)C(=O)O)[C@@H](C)O)[C@@H](C)O)[C@@H](C)CC [SIGRRGGYCAGIIKQTCTCYR]
MIC [22]: 2 µM (≈ 4.61 µg/mL) | MIC [35]: 10 µM (≈ 23.1 µg/mL) | MIC [36]: 5 µM (≈ 11.5 µg/mL) | MIC [37]: 2 µM (≈ 4.61 µg/mL) | MIC [11]: 2 µM (≈ 4.61 µg/mL)

CC(C)C[C@H](NC(=O)[C@H](CCCN=C(N)N)NC(=O)[C@H](Cc1ccccc1)NC(=O)[C@H](Cc1ccccc1)NC(=O)[C@@H](N)[C@@H](C)O)C(=O)N[C@@H](Cc1ccccc1)C(=O)N[C@@H](CC(N)=O)C(=O)N[C@@H](CCCN=C(N)N)C(=O)N[C@@H](CO)C(=O)NCC(=O)NCC(=O)NCC(=O)N[C@@H](Cc1ccccc1)C(=O)N[C@@H](CCCCN)C(=O)N[C@@H](CCCCN)C(=O)N[C@@H](Cc1ccccc1)C(=O)N[C@@H](Cc1c[nH]c2ccccc12)C(=O)N[C@@H](CCCCN)C(=O)N[C@@H](Cc1c[nH]c2ccccc12)C(=O)N[C@@H](Cc1ccccc1)C(=O)N[C@@H](CCCN=C(N)N)C(=O)N[C@@H](CCCN=C(N)N)C(=O)N[C@@H](Cc1ccccc1)C(=O)O [TFFRLFNRSGGGFKKFWKWFRRF]
MIC [38]: 10 µM (≈ 30.2 µg/mL) | MIC [39]: 20 µM (≈ 60.3 µg/mL) | MIC [40]: 2.5 µM (≈ 7.54 µg/mL) | MIC [41]: 2.5 µM (≈ 7.54 µg/mL)

CC(C)C[C@H](NC(=O)[C@@H](NC(=O)CNC(=O)[C@H](CCCCN)NC(=O)[C@H](C)NC(=O)[C@H](CS)NC(=O)[C@H](CC(N)=O)NC(=O)[C@H](CC(C)C)NC(=O)CNC(=O)[C@H](Cc1cnc[nH]1)NC(=O)[C@H](Cc1cnc[nH]1)NC(=O)[C@H](CC(C)C)NC(=O)[C@H](CC(C)C)NC(=O)[C@H](C)NC(=O)[C@H](CC(N)=O)NC(=O)[C@H](CC(C)C)NC(=O)[C@@H](N)Cc1c[nH]c2ccccc12)C(C)C)C(N)=O [WLNALLHHGLNCAKGVL]
MIC [42]: 1.52 µM (≈ 2.83 µg/mL) | MIC [43]: 0.538 µM (≈ 1 µg/mL)
